Test results reported in patent US20060292639A1, “Splice variant of the vanilloid receptor VR1A” (Adolor Corporation, priority 2004, published 2006).
Where two headings read alike, the source gives them in different places.

How the values were obtained:
human DRG VR1 = molecular target: T1, human DRG VR1 (Homo sapiens, UniProt Q8NER1, I585V/K332R/M315I); test: Ca2+ influx assay, stable cell line expressing VR1; format: cell-based; details: for IC50: VR1 stable cell line, N=4, read-out: IC50 Capsazepine
T1 construct: The two primers were designed to amplify the entire coding region; expressed in transfected cells; CHO is stated only for the VR1A construct
T1 sequence (Q8NER1 whole entry M315I/K332R/I585V): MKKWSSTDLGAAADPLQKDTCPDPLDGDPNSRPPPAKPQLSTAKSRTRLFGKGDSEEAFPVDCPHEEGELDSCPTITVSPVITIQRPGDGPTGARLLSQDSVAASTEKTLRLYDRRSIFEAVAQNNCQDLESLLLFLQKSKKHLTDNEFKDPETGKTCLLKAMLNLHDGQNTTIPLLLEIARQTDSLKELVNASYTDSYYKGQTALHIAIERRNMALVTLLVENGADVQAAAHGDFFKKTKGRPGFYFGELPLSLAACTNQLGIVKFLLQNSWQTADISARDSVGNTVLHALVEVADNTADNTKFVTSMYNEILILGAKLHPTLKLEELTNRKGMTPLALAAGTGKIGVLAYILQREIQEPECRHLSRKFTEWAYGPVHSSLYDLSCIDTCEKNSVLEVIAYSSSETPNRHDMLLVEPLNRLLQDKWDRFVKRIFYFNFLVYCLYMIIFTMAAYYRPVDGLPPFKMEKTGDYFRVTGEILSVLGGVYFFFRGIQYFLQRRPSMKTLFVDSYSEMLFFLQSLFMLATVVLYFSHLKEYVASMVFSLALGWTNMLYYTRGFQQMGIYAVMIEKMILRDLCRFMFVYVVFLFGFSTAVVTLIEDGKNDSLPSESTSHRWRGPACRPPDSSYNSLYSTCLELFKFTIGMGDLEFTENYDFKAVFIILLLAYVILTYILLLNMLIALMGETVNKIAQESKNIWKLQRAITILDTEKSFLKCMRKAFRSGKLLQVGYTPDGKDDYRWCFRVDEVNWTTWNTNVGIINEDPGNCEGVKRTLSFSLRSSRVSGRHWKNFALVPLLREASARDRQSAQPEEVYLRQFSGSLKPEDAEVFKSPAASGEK
Protocol: (§1) B. Generation of a stable cell line: The VR1A construct was transfected into 80-90% confluent cultures of CHO cells grown in F12 media containing 10% fetal bovine serum (Hyclone Laboratories). After 48 hours, cells were transferred to selection medium (growth medium containing 1 mg/ml of G418) and 15 days later individual G418 resistant foci were isolated and expanded. In order to identify a functional cell line, the expanded cells were plated in a 96 well plate and grown to confluency. […] Functional clones were retested, expanded and cryopreserved.
(§2) C. Calcium influx assay: The stable cell lines, expressing human DRG VR1 and human pancreas VR1A, were seeded the day before the assay at 40,000 cells/well density in 96 well black clear bottom assay plates (Corning Inc., Corning, N.Y.). On the day of the assay, the medium of cell plates was changed to 0.2 ml of 1× Hanks' balanced salt solution (Invitrogen, Carlsbad, Calif.) containing 20 mM HEPES, pH 7.4, 1.3 mM freshly made probenecid and 3 μM Fluo-3AM (Molecular Devices, Sunnyvale, Calif.). The cell plates were incubated at 37° C. for one hour and left at room temperature for 30 minutes. Serial dilutions of agonist compounds, starting at 100 μM, were set up in 96 well plates and subsequently used for the analysis. Both plates were loaded to the FlexStation in order to run the assay. The excitation wavelength was 485 nM and the emission wavelength was 583 nM.

human pancreas VR1A = molecular target: T2, human pancreas VR1A (Homo sapiens, UniProt Q8NER1, I585V/M315I/M552V); test: Ca2+ influx assay, stable cell line expressing VR1A; format: cell-based
T2 construct: VR1A codes for a VR1-like protein, 837 amino acids long, with 148 unique residues at the N-terminal end; expressed in transfected cells; host or cells: CHO
T2 sequence (Q8NER1 1-837 isoform Q8NER1-3 M313I/M550V/I583V): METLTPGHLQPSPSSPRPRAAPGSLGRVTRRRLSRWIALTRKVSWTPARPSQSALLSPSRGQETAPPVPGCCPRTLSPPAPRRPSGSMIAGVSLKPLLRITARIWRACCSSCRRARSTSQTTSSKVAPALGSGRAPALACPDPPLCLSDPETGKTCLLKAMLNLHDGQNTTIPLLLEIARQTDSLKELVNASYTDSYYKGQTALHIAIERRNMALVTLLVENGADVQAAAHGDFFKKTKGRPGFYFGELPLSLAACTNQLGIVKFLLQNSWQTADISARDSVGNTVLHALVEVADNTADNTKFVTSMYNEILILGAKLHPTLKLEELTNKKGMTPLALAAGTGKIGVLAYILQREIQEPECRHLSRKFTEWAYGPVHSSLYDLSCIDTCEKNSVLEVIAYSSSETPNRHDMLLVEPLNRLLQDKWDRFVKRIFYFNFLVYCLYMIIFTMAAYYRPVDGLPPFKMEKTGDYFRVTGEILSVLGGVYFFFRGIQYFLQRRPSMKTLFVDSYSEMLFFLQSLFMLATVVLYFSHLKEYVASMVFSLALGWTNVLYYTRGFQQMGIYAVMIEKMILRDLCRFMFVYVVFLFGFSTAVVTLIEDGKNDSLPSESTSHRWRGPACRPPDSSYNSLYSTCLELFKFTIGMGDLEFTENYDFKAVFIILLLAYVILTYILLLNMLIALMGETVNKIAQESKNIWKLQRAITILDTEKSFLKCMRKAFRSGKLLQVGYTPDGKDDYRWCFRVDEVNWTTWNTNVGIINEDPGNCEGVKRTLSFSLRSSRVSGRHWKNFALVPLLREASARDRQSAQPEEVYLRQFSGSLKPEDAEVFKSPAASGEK
Protocol: as §1, §2

`Oc1cc2c(cc1O)CN(C(=S)NCCc1ccc(Cl)cc1)CCC2` [Capsazepine, capsazepine] showed an IC50 (human DRG VR1; E-capsaicin as agonist) of 0.194 ± 6e-05 µM, an IC50 (human DRG VR1; RTX as agonist) of 0.14 ± 0.0008 µM and an IC50 (human pancreas VR1A; IC50 Capsazepine, VR1A stable cell line, RTX as agonist, N=4) of 0.025 ± 0.00026 µM. The IC50 (human pancreas VR1A; read-out: IC50 Capsazepine) was 0.06 ± 0.0001 µM and the “fold lower IC50 value with RTX as an agonist compared to capsaicin as an agonist” value (human pancreas VR1A; text does not say whether VR1 or VR1A is meant) was “approximately 5 fold”.

`C=C(C)[C@]12C[C@@H](C)[C@@]34O[C@](Cc5ccccc5)(O[C@@H]1[C@@H]3C=C(COC(=O)Cc1ccc(O)c(OC)c1)C[C@]1(O)C(=O)C(C)=C[C@@H]41)O2` [RTX, resiniferatoxin] gave an EC50 (human DRG VR1) of 0.0016 ± 0.00017 µM and an EC50 (human pancreas VR1A) of 0.005 ± 8e-05 µM.
